Experimental findings from patent US9493444B2 (Merck Patent GmbH, priority 2012, dated 2016) are described below.

The structures appear in SMILES notation.

The test concerns Wnt pathway (TCF-dependent transcription in HEK293 luciferase reporter cell line with ER-DSH construct). Nature of the test: Cellular assay for Wnt pathway activity (luciferase reporter). Format: cell-based. The note with it: Homo sapiens; Wnt pathway inhibition, HEK293 luciferase reporter cells (ER-DSH, TCF promoter), 24 hours incubation, estrogen-induced. Summed up: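 Luminescent luciferase read-out after 24 h compound exposure at 1 nM to 30 μM, with TCF-driven transcription switched on by estrogen addition. IC50 values come from curve fits of data normalized against the vehicle-only control.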
On the technique in general: A reporter such as luciferase makes a cellular process visible.
A word on the IC50: it is the midpoint of a concentration-inhibition curve. Consider `CC(=O)N(C)CCN(C)c1cncc(Oc2ccc(-c3cc(C(N)=O)ccn3)cc2)n1` [Compound 192, 2-[4-(6-{[2-(Acetyl-methyl-amino)-ethyl]-methyl-amino}-pyrazin-2-yloxy)-phenyl]-isonico-tinamide], for which the IC50 fell in the range of 200 to 1000 nM.

The molecule `Cc1ccc(-c2ccc(Oc3cncc(N(C)CCN4CCCCC4=O)n3)cc2)nc1` [Compound 193, 1-[2-(Methyl-{6-[4-(5-methyl-pyridin-2-yl)-phenoxy]-pyrazin-2-yl}-amino)-ethyl]-piperidin-2-one] had an IC50 of under 200 nM.

Molecule `COc1cc(-c2ccc(Oc3cncc(N(C)CCN(C)C(C)=O)n3)cc2)ccn1` [Compound 194, N-[2-({6-[4-(2-Methoxy-pyridin-4-yl)-phenoxy]-pyrazin-2-yl}-methyl-amino)-ethyl]-N-methyl-acetamide] yielded an IC50 of 200 to 1000 nM.

Regarding `CC(=O)N(C)CCN(C)c1cncc(Oc2ccc(-c3ccnc4ccccc34)cc2)n1` [Compound 195, N-Methyl-N-(2-{methyl-[6-(4-quinolin-4-yl-phenoxy)-pyrazin-2-yl]-amino}-ethyl)-acetamide], the IC50 was under 200 nM.

With `Cc1ccc(-c2ccc(Oc3cncc(NCCN4CCCC4=O)n3)cc2)nc1` [Compound 196, 1-(2-{6-[4-(5-Methyl-pyridin-2-yl)-phenoxy]-pyrazin-2-ylamino}-ethyl)-pyrrolidin-2-one], the IC50 is under 200 nM.

Turning to `Cc1ccc(-c2ccc(Oc3cncc(NCCN4CCCCC4=O)n3)cc2)nc1` [Compound 197, 1-(2-{6-[4-(5-Methyl-pyridin-2-yl)-phenoxy]-pyrazin-2-ylamino}-ethyl)-piperidin-2-one], the IC50 is under 200 nM.

For `CC(=O)N(C)CCN(C)c1cncc(Oc2ccc(-c3ccc([N+](=O)[O-])cn3)cc2)n1` [Compound 198, N-Methyl-N-[2-(methyl-{6-[4-(5-nitro-pyridin-2-yl)-phenoxy]-pyrazin-2-yl}-amino)-ethyl]-acetamide], the half-maximal inhibitory concentration (IC50) was under 200 nM.

Molecule `CC(=O)N(C)CCN(C)c1cncc(Oc2ccc(-c3cc(C#N)ccn3)cc2)n1` [Compound 199, N-[2-({6-[4-(4-Cyano-pyridin-2-yl)-phenoxy]-pyrazin-2-yl}-methyl-amino)-ethyl]-N-methyl-acetamide] displayed an IC50 of under 200 nM.

Molecule `CC(=O)N(C)CCN(C)c1cncc(Oc2ccc(-c3cccc(C#N)n3)cc2)n1` [Compound 200, N-[2-({6-[4-(6-Cyano-pyridin-2-yl)-phenoxy]-pyrazin-2-yl}-methyl-amino)-ethyl]-N-methyl-acetamide] gave an IC50 of under 200 nM.

Consider `CC(=O)N(C)CCN(C)c1cncc(Oc2ccc(-c3ccnc(C#N)c3)cc2)n1` [Compound 201, N-[2-({6-[4-(2-Cyano-pyridin-4-yl)-phenoxy]-pyrazin-2-yl}-methyl-amino)-ethyl]-N-methyl-acetamide], for which the IC50 was under 200 nM.

Molecule `CC(=O)N(C)CCN(C)c1cncc(Oc2ccc(-c3ccnc(N)n3)cc2)n1` [Compound 202, N-[2-({6-[4-(2-Amino-pyrimidin-4-yl)-phenoxy]-pyrazin-2-yl}-methyl-amino)-ethyl]-N-methyl-acetamide] registered an IC50 of under 200 nM.

With `CC(=O)N(C)CCN(C)c1cncc(Oc2ccc(-c3ccncc3)cc2)n1` [Compound 203, N-Methyl-N-(2-{methyl-[6-(4-pyridin-4-yl-phenoxy)-pyrazin-2-yl]-amino}-ethyl)-acetamide], the IC50 was under 200 nM.

Turning to `CC(=O)N(C)CCN(C)c1cncc(Oc2ccc(-c3ccnc(O)c3)cc2)n1` [Compound 204, N-[2-({6-[4-(2-Hydroxy-pyridin-4-yl)-phenoxy]-pyrazin-2-yl}-methyl-amino)-ethyl]-N-methyl-acetamide], the IC50 was in the range of 200 to 1000 nM.

The molecule `CC(=O)N(C)CCN(C)c1cncc(Oc2ccc(-c3cccc(N)n3)cc2)n1` [Compound 205, N-[2-({6-[4-(6-Amino-pyridin-2-yl)-phenoxy]-pyrazin-2-yl}-methyl-amino)-ethyl]-N-methyl-acetamide] displayed an IC50 of under 200 nM.

With `CC(=O)N(C)CCN(C)c1cncc(Oc2ccc(-c3cccc(S(C)(=O)=O)n3)cc2)n1` [Compound 206, N-[2-({6-[4-(6-Methane-sulfonyl-pyridin-2-yl)-phenoxy]-pyrazin-2-yl}-methyl-amino)-ethyl]-N-methyl-acetamide], the IC50 is under 200 nM.

In turn, `CC(=O)N(C)CCN(C)c1cncc(Oc2ccc(-c3cnc4ccccc4c3)cc2)n1` [Compound 207, N-Methyl-N-(2-{methyl-[6-(4-quinolin-3-yl-phenoxy)-pyrazin-2-yl]-amino}-ethyl)-acetamide] had an IC50 of 200 to 1000 nM.

Consider `CC(=O)N(C)CCN(C)c1cncc(O[C@H]2C[C@H]3CC[C@@H]2C3)n1` [Compound 208, N-(2-{[6-((1R,2S,4S)-Bicyclo[2.2.1]hept-2-yloxy)-pyrazin-2-yl]-methyl-amino}-ethyl)-N-methyl-acetamide], for which the IC50 fell in the range of 1000 to 10000 nM.

Take `CC(=O)N(C)CCN(C)c1cncc(Oc2ccc(-c3cncnc3)cc2)n1` [Compound 209, N-Methyl-N-(2-{methyl-[6-(4-pyrimidin-5-yl-phenoxy)-pyrazin-2-yl]-amino}-ethyl)-acetamide]: the IC50 is under 200 nM.

The molecule `CC(=O)N(C)CCN(C)c1cncc(Oc2ccc(-c3ccnc(F)c3)cc2)n1` [Compound 210, N-[2-({6-[4-(2-Fluoro-pyridin-4-yl)-phenoxy]-pyrazin-2-yl}-methyl-amino)-ethyl]-N-methyl-acetamide] returned an IC50 of under 200 nM.

`CC(=O)N(C)CCN(C)c1cncc(Oc2ccc(-c3ccc(C#N)nc3)cc2)n1` [Compound 211, N-[2-({6-[4-(6-Cyano-pyridin-3-yl)-phenoxy]-pyrazin-2-yl}-methyl-amino)-ethyl]-N-methyl-acetamide] came in with an IC50 of under 200 nM.

In turn, `CC(=O)N(C)CCN(C)c1cncc(Oc2ccc(-c3cncc(C)c3)cc2)n1` [Compound 212, N-Methyl-N-[2-(methyl-{6-[4-(5-methyl-pyridin-3-yl)-phenoxy]-pyrazin-2-yl}-amino)-ethyl]-acetamide] had an IC50 of 200 to 1000 nM.

Consider `CC(=O)N(C)CCCc1cncc(Oc2ccc(-c3ccncc3C#N)cc2)n1` [Compound 213, N-(3-{6-[4-(3-Cyano-pyridin-4-yl)-phenoxy]-pyrazin-2-yl}-propyl)-N-methyl-acetamide], for which the IC50 fell in the range of 200 to 1000 nM.

Take `CC(=O)N(C)CCCc1cncc(Oc2ccc(-c3cnc(N)cn3)cc2)n1` [Compound 214, N-(3-{6-[4-(5-Amino-pyrazin-2-yl)-phenoxy]-pyrazin-2-yl}-propyl)-N-methyl-acetamide]: the IC50 lay within 200 to 1000 nM.

`CC(=O)N(C)CCCc1cncc(Oc2ccc(-c3ccc(C)cn3)cc2)n1` [Compound 215, N-Methyl-N-(3-{6-[4-(5-methyl-pyridin-2-yl)-phenoxy]-pyrazin-2-yl}-propyl)-acetamide] displayed an IC50 of 200 to 1000 nM.

On to `CC(=O)N(C)CCCc1cncc(Oc2ccc(-c3ccc(N4CCOCC4)nc3)cc2)n1` [Compound 216, N-Methyl-N-(3-{6-[4-(6-morpholin-4-yl-pyridin-3-yl)-phenoxy]-pyrazin-2-yl}-propyl)-acetamide], for which the IC50 fell in the range of 200 to 1000 nM.

For the molecule `CC(=O)N(C)CCCc1cncc(Oc2ccc(-c3cccc(N4CCN(C)CC4)n3)cc2)n1` [Compound 217, N-Methyl-N-[3-(6-{4-[6-(4-methyl-piperazin-1-yl)-pyridin-2-yl]-phenoxy}-pyrazin-2-yl)-propyl]-acetamide], the IC50 was 200 to 1000 nM.

`CC(=O)Nc1cccc(-c2ccc(Oc3cncc(CCCN(C)C(C)=O)n3)cc2)n1` [Compound 218, N-(3-{6-[4-(6-Acetylamino-pyridin-2-yl)-phenoxy]-pyrazin-2-yl}-propyl)-N-methyl-acetamide] gave an IC50 of 200 to 1000 nM.

`CC(=O)Nc1ccc(-c2ccc(Oc3cncc(CCCN(C)C(C)=O)n3)cc2)cn1` [Compound 219, N-(3-{6-[4-(6-Acetylamino-pyridin-3-yl)-phenoxy]-pyrazin-2-yl}-propyl)-N-methyl-acetamide] had an IC50 of 200 to 1000 nM.

As to `CC(=O)N(C)CCCc1cncc(Oc2ccc(-c3ccc(F)cn3)cc2)n1` [Compound 220, N-(3-{6-[4-(5-Fluoro-pyridin-2-yl)-phenoxy]-pyrazin-2-yl}-propyl)-N-methyl-acetamide], the IC50 is 1000 to 10000 nM.

For the molecule `COc1ccc(-c2ccc(Oc3cncc(CCCN(C)C(C)=O)n3)cc2)nc1` [Compound 221, N-(3-{6-[4-(5-Methoxy-pyridin-2-yl)-phenoxy]-pyrazin-2-yl}-propyl)-N-methyl-acetamide], the IC50 fell in the range of 200 to 1000 nM.

Take `CC(=O)N(C)CCN(C)c1cncc(Oc2cnn(-c3cccc(C(F)(F)F)c3)c2)n1` [Compound 222, N-Methyl-N-[2-(methyl-{6-[1-(3-trifluoromethyl-phenyl)-1H-pyrazol-4-yloxy]-pyrazin-2-yl}-amino)-ethyl]-acetamide]: the IC50 fell in the range of 1000 to 10000 nM.

On to `CC(=O)N(C)CCN(C)c1cncc(OC2Cc3ccccc3C2)n1` [Compound 223, N-(2-{[6-(Indan-2-yloxy)-pyrazin-2-yl]-methyl-amino}-ethyl)-N-methyl-acetamide], for which the IC50 lay within 200 to 1000 nM.

Regarding `CC(=O)N(C)CCN(C)c1cncc(Oc2noc3ccccc23)n1` [Compound 224, N-(2-{[6-(Benzo[d]isoxazol-3-yloxy)-pyrazin-2-yl]-methyl-amino}-ethyl)-N-methyl-acetamide], the IC50 was under 200 nM.

In turn, `CC(=O)Nc1ccc(-c2ccc(Oc3cncc(N(C)CCN(C)C(C)=O)n3)c(F)c2)cn1` [Compound 225, N-[2-({6-[4-(6-Acetylamino-pyridin-3-yl)-2-fluoro-phenoxy]-pyrazin-2-yl}-methyl-amino)-ethyl]-N-methyl-acetamide] yielded an IC50 of under 200 nM.

`CC(=O)N(C)CCN(C)c1cncc(Oc2ccc(-c3ccc(F)cn3)cc2F)n1` [Compound 226, N-[2-({6-[2-Fluoro-4-(5-fluoro-pyridin-2-yl)-phenoxy]-pyrazin-2-yl}-methyl-amino)-ethyl]-N-methyl-acetamide] yielded an IC50 of under 200 nM.
